# Values joined by “and” are separate entries in the source; they are usually repeats but may differ in a detail not shown here. Identical values can stand only once. “Also recorded” adds a separate entry of the source.
# Columns and labels:
# [1] = tested on: patients with resistant hypertension; test: Same clinical study: 24-hour ambulatory blood pressure monitoring (ABPM); assay type: in vivo, human
# Protocol: (§1) Co-primary efficacy endpoints were the changes from baseline through weeks 8 and 10 (i.e., doses of 150 and 300 mg) in trough sitting SBP. Blood pressure was measured at every study visit (baseline and weeks 2, 4, 6, 8 and 10) using standard sphygmomanometry. Secondary variables included 24-hour SBP as measured by ambulatory blood pressure monitoring (ABPM), percentage of patients who achieved SBP goal, trough sitting DBP, and urinary albumin to creatinine ratio. Ambulatory blood pressure monitoring was recorded once before randomization and repeated during the 24 hours immediately preceding the week 10 study visit. Urine samples for determination of albumin to creatinine ratio were collected at screening, baseline and week 10.
# (§2) A nonlinear mixed effect model was used for the analysis of change in blood pressure, with comorbidity status as a covariate. This model used all observed blood pressure measurements with no imputation for missing values. Linear contrast statements were used to test the slope through a given time point to test the effect of the dose administered on that week. Estimates of treatment effect were obtained via least square means. Response rates were compared with logistic regression models at each blood pressure measurement with comorbidity status as a covariate; missing values were imputed with last observation carried forward for these models. Safety summaries include all patients who received ≧1 dose of blinded study medication.
# In this randomized, double-blind, multi-center study, subjects underwent a 2-week placebo run-in, followed by 2:1 randomization to darusentan or placebo once daily for 10 weeks. Subjects were initiated on 10 mg of study drug and underwent dose-escalation every 2 weeks through doses of 50, 100 and 150 mg until a maximum dose of 300 mg was achieved. Change from baseline to week 10 in 24-hour ambulatory blood pressure (ABP) was a secondary efficacy endpoint. All available ABP data were included in the analyses (observed population).
# [2] = tested on: patients with resistant hypertension; test: Randomized, double-blind, placebo-controlled dose-titration study: sitting blood pressure by standard sphygmomanometry; assay type: in vivo, human; conditions: for patients achieving SBP goal, % / patients achieving SBP goal, responders n: n = 76; for placebo-corrected change from baseline in trough sitting SBP: post-hoc
# Protocol: In this randomized, double-blind, placebo-controlled, dose-titration study, 115 patients with resistant hypertension as defined by JNC 7 guidelines were randomized 2:1 to receive escalating doses of darusentan (10, 50, 100, 150 and 300 mg) or placebo once daily for 10 weeks. Darusentan dose was increased every 2 weeks.
# Patients (35 to 85 years of age) with resistant hypertension as defined by the JNC 7 guidelines and who were treated with and adhered to full doses of JNC 7 recommended antihypertensives, including a diuretic and two or more antihypertensive medications from different drug classes, defined as (a) ACE inhibitors and angiotensin II receptor blockers, (b) beta-adrenergic receptor blockers, and (c) calcium channel blockers, were eligible to participate in the study. Patients also were required to have an estimated glomerular filtration rate (GFR)≧30 mL/min/1.73 m^2 during the screening period. Women of childbearing potential were required to have a negative serum pregnancy test at the screening visit and a negative urine pregnancy test at baseline, and they must have agreed to use a reliable double-barrier method of contraception throughout the study and for at least 4 weeks after the last study visit. Patients with an average sitting SBP≧180 mmHg, DBP≧110 mmHg, hemoglobin A1c>10%, hemoglobin concentration<10 g/dL, hematocrit<30%, serum thyroid stimulating hormone concentration>1.5× the upper limit of normal (ULN), or serum alanine aminotransferase (ALT) or aspartate aminotransferase (AST)>2×ULN during the screening period were excluded from the study. […] All patients provided written informed consent.
# In this randomized, double-blind, placebo-controlled, dose-titration study, patients were randomized 2:1 to receive escalating doses of darusentan or placebo once daily in the morning for 10 weeks after completing a 2-week placebo run-in period (FIG. 1). Darusentan was initiated at a dose of 10 mg/day and escalated every 2 weeks at doses of 50, 100 and 150 mg/day until reaching a maximum of 300 mg/day. […] Patients were withdrawn from the study if a subsequent dose reduction was required. After completion of the 10-week treatment period, patients were withdrawn from study medication over a maximum of 2 weeks. This study was approved by an Institutional Review Board/Independent Ethics Committee and conducted in accordance with the principles of Good Clinical Practices and the revised Declaration of Helsinki.
# as §1
# as §2, with “medication. […]” for “medication.”
smiles,measurement,setting,value
"COc1cc(OC)nc(O[C@H](C(=O)O)C(OC)(c2ccccc2)c2ccccc2)n1 [Darusentan, (+)-(S)-2-[(4,6-dimethoxy-2-pyrimidinyl)oxy]-3-methoxy-3,3-diphenylpropionic acid]",placebo-adjusted reduction in mean 24-hour diastolic ABP,"[1]; 300 mg, week 10",7.2±1.6 mmHg
same,"placebo-adjusted 24-hour ambulatory DBP, change from baseline",[1]; ABPM at week 10,−7.2 mmHg and −7.2±1.6 mmHg
same,"placebo-adjusted 24-hour ambulatory SBP, change from baseline",[1]; ABPM at week 10,−9.2 mmHg and −9.2±2.2 mmHg
same,blood pressure reduction over the 24-hour monitoring period,"[1]; ABPM week 10, once daily dosing",maintained throughout the 24-hour monitoring period; also recorded: maintained over 24 hours; also recorded: remained consistently lower throughout the dosing interval
same,improvement in placebo-adjusted diurnal SBP,"[1]; after 10 weeks, post-hoc analysis",8.7 mmHg
same,placebo-adjusted change from baseline in mean ABPM-determined nocturnal DBP,[1]; week 10,−5.9 mm Hg
same,placebo-adjusted change from baseline in mean ABPM-determined nocturnal SBP,[1]; week 10,−9.9 mm Hg
same,decrease in day-time SBP,"[1]; week 10, placebo 2.2±2.4",10.9±1.4 mmHg
same,improvement in peak DBP as recorded by ABPM,"[1]; week 10, placebo 2.3",9.2 mmHg
same,decrease in night-time SBP,"[1]; week 10, placebo 3.8±2.7",11.9±1.6 mmHg
same,improvement in peak SBP as recorded by ABPM,"[1]; week 10, placebo 6.0",14.1 mmHg
same,Day/night SBP ratio,"[1]; week 10, placebo 6.8%",9.5%
same,sitting and standing blood pressure during withdrawal,"[2]; 2-week withdrawal period after week 10, no significant difference vs placebo",increased
same,dose dependence of improvements in trough sitting SBP and DBP,"[2]; 10 to 300 mg once daily, escalated every 2 weeks",dose dependent
same,reduction in peak sitting DBP,[2]; by week 10,8.2 mmHg
same,reduction in peak sitting SBP,"[2]; by week 10, placebo 9.9",17.1 mmHg
same,average trough sitting DBP at end of treatment,"[2]; study end (week 10), baseline 80.6",73.9 mmHg
same,average trough sitting SBP at end of treatment,"[2]; study end (week 10), baseline 146.3",132.6 mmHg
same,"patients achieving SBP goal, %",[2]; week 2 (10 mg),30.3%
same,"patients achieving SBP goal, responders n",[2]; week 2 (10 mg),23
same,"placebo-adjusted mean trough sitting DBP, change from baseline",[2]; week 4 (50 mg dose),−4.9 mmHg
same,"patients achieving SBP goal, %",[2]; week 4 (50 mg),47.4%
same,"patients achieving SBP goal, responders n",[2]; week 4 (50 mg),36
same,"patients achieving SBP goal, %",[2]; week 6 (100 mg),44.7%
same,"patients achieving SBP goal, responders n",[2]; week 6 (100 mg),34
same,"change from baseline in mean trough sitting SBP, difference between groups","[2]; week 8 (150 mg dose), vs placebo",not statistically significant
same,"patients achieving SBP goal, %",[2]; week 8 (150 mg),42.1%
same,"patients achieving SBP goal, responders n",[2]; week 8 (150 mg),32
same,"placebo-adjusted mean trough sitting DBP, change from baseline","[2]; week 10 (300 mg dose), add-on therapy",−5.8 mmHg and −5.8±2.3 mmHg
same,"placebo-adjusted mean trough sitting SBP, change from baseline","[2]; week 10 (300 mg dose), oral once daily, add-on to >=3 full-dose antihypertensives incl. diuretic",−11.6 mmHg and −11.6±3.3 mmHg
same,"patients achieving SBP goal, %","[2]; week 10 (300 mg), JNC 7 goal",49% and 48.7%
same,"patients achieving SBP goal, responders n",[2]; week 10 (300 mg),37
same,placebo-corrected change from baseline in trough sitting SBP,"[2]; week 10 (300 mg), subjects on >=4 antihypertensive drugs",−12.71 mmHg
same,placebo-corrected change from baseline in trough sitting SBP,"[2]; week 10 (300 mg), subjects on exactly 3 antihypertensive drugs",−9.39 mmHg
same,subjects with decrease in SBP of at least 20 mmHg,"[2]; week 10, post-hoc, placebo 26%",about 46%
same,subjects with change from baseline of at least 10 mmHg for SBP,"[2]; week 10, post-hoc, placebo 46%",approximately 64%
same,subjects achieving SBP goal or a decrease in SBP of at least 10 mmHg,"[2]; week 10, post-hoc, placebo 49%",71%
same,subjects achieving SBP goal or a decrease in SBP of at least 10 mmHg,"[2]; week 10, subjects on >=4 antihypertensive drugs, placebo 38%",66%
same,subjects achieving SBP goal or a decrease in SBP of at least 10 mmHg,"[2]; week 10, subjects on exactly 3 antihypertensive drugs, placebo 57%",76%
